Data from ChEMBL document CHEMBL4507272 (2021).

Key:
[1] = target: Serine/threonine-protein kinase WNK2 (Homo sapiens) (UniProt Q9Y3S1); conditions: Compound concentration 1000.0 nM
[2] = target: Myotonin-protein kinase (Homo sapiens) (UniProt Q09013); conditions: Compound concentration 1000.0 nM
[3] = target: Cytoplasmic tyrosine-protein kinase BMX (Homo sapiens) (UniProt P51813); conditions: Compound concentration 1000.0 nM
[4] = system: Receptor-type tyrosine-protein kinase FLT3 (Homo sapiens), P36888 [D835H]; conditions: Compound concentration 1000.0 nM
[5] = target: SRSF protein kinase 2 (Homo sapiens) (UniProt P78362); conditions: Compound concentration 1000.0 nM
[6] = target: Non-receptor tyrosine-protein kinase TYK2 (Homo sapiens) (UniProt P29597); conditions: Compound concentration 1000.0 nM
[7] = target: 5-hydroxytryptamine receptor 5A (Homo sapiens) (UniProt P47898); conditions: Compound concentration 10.0 uM
Chain of 5-hydroxytryptamine receptor 5A (Homo sapiens) (P47898 whole entry): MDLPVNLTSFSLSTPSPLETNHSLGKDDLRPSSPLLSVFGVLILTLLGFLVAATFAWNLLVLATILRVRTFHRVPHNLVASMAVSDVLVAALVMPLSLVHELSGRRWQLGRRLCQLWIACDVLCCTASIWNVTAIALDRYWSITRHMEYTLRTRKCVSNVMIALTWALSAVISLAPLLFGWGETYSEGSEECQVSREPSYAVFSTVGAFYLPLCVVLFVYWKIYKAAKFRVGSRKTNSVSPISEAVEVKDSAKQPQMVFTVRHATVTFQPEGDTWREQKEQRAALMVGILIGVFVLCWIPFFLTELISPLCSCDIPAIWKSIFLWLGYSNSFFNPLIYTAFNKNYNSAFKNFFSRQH

[8] = target: Delta-type opioid receptor (Homo sapiens) (UniProt P41143); conditions: Compound concentration 10.0 uM
[9] = target: Cyclin-dependent kinase 13 (Homo sapiens) (UniProt Q14004); conditions: Compound concentration 1000.0 nM
[10] = target: Transient receptor potential cation channel subfamily M member 6 (Homo sapiens) (UniProt Q9BX84); conditions: Compound concentration 1000.0 nM
[11] = target: Ribosomal protein S6 kinase alpha-5 (Homo sapiens) (UniProt O75582); conditions: Compound concentration 1000.0 nM
Chain of Ribosomal protein S6 kinase alpha-5 (Homo sapiens) (O75582 whole entry, looked up): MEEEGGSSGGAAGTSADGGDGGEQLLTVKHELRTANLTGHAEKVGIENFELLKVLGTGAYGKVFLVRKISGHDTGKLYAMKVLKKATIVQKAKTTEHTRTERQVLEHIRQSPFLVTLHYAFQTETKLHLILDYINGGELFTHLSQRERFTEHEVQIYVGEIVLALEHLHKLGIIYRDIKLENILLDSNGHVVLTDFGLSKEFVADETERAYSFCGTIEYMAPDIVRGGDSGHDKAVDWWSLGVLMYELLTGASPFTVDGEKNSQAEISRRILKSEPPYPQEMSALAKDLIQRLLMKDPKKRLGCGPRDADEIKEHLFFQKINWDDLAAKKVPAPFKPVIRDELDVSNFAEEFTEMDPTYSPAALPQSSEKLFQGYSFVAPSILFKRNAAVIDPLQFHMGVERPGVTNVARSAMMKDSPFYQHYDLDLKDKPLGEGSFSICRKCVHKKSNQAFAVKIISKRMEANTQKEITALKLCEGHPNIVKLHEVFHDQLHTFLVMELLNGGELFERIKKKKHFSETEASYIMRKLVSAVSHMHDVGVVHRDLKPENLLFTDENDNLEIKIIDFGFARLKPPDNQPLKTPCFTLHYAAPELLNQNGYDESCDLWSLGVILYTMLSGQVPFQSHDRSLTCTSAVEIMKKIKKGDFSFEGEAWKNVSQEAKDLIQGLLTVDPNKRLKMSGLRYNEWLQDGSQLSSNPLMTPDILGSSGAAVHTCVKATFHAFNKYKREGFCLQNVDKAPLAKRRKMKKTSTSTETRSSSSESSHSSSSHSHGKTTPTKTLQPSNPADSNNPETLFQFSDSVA

[12] = target: Dual specificity mitogen-activated protein kinase kinase 7 (Homo sapiens) (UniProt O14733); conditions: Compound concentration 1000.0 nM
[13] = target: Phosphatidylinositol 4-phosphate 5-kinase type-1 alpha (Homo sapiens) (UniProt Q99755); conditions: Compound concentration 1000.0 nM
[14] = target: Serine/threonine-protein kinase ULK3 (Homo sapiens) (UniProt Q6PHR2); conditions: Compound concentration 1000.0 nM
[15] = target: Receptor tyrosine-protein kinase erbB-2 (Homo sapiens) (UniProt P04626); conditions: Compound concentration 1000.0 nM
[16] = target: Homeodomain-interacting protein kinase 3 (Homo sapiens) (UniProt Q9H422); conditions: Compound concentration 1000.0 nM
[17] = target: Calcium-dependent protein kinase 1 (Plasmodium falciparum) (UniProt P62344); conditions: Compound concentration 1000.0 nM
[18] = target: Serine/threonine-protein kinase Nek6 (Homo sapiens) (UniProt Q9HC98); conditions: Compound concentration 1000.0 nM
[19] = target: Serine/threonine-protein kinase 38 (Homo sapiens) (UniProt Q15208); conditions: Compound concentration 1000.0 nM
Chain of Serine/threonine-protein kinase 38 (Homo sapiens) (Q15208 2-465 limits assumed): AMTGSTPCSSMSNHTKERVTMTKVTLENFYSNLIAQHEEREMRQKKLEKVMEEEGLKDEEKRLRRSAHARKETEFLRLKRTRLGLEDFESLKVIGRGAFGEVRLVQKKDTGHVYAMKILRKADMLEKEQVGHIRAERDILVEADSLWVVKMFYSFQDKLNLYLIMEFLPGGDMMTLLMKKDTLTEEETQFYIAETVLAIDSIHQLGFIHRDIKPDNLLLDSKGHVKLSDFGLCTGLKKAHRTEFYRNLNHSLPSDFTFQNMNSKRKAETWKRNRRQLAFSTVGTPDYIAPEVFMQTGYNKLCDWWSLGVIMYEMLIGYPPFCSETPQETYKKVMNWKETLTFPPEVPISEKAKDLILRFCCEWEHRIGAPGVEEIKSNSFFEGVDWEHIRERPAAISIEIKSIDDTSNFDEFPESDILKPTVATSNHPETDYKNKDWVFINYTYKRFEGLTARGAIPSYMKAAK

[20] = target: Muscle, skeletal receptor tyrosine-protein kinase (Homo sapiens) (UniProt O15146); conditions: Compound concentration 1000.0 nM
[21] = target: Atypical kinase COQ8B, mitochondrial (Homo sapiens) (UniProt Q96D53); conditions: Compound concentration 1000.0 nM
[22] = target: Muscarinic acetylcholine receptor M5 (Homo sapiens) (UniProt P08912); conditions: Compound concentration 10.0 uM
[23] = target: Dual specificity protein kinase CLK1 (Homo sapiens) (UniProt P49759); conditions: Compound concentration 1000.0 nM
Chain of Dual specificity protein kinase CLK1 (Homo sapiens) (P49759 whole entry, looked up): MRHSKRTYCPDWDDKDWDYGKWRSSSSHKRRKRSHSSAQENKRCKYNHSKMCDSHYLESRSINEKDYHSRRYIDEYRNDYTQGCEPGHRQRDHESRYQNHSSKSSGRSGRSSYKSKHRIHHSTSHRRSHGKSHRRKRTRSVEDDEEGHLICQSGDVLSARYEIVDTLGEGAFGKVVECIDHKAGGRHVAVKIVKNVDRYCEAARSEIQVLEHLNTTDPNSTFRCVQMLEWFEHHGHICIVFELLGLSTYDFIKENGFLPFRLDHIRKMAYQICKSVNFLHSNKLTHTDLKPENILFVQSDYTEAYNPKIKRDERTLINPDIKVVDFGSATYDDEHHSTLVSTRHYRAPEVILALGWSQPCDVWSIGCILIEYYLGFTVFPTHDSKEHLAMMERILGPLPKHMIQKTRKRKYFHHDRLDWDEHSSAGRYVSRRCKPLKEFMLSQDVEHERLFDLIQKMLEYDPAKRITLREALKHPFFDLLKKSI

[24] = target: Serine/threonine-protein kinase MARK1 (Homo sapiens) (UniProt Q9P0L2); conditions: Compound concentration 1000.0 nM
[25] = system: Epidermal growth factor receptor (Homo sapiens), P00533 [L858R]; conditions: Compound concentration 1000.0 nM
[26] = target: Aurora kinase C (Homo sapiens) (UniProt Q9UQB9); conditions: Compound concentration 1000.0 nM
[27] = target: Serine/threonine-protein kinase PAK 6 (Homo sapiens) (UniProt Q9NQU5); conditions: Compound concentration 1000.0 nM
Chain of Serine/threonine-protein kinase PAK 6 (Homo sapiens) (Q9NQU5 whole entry, looked up): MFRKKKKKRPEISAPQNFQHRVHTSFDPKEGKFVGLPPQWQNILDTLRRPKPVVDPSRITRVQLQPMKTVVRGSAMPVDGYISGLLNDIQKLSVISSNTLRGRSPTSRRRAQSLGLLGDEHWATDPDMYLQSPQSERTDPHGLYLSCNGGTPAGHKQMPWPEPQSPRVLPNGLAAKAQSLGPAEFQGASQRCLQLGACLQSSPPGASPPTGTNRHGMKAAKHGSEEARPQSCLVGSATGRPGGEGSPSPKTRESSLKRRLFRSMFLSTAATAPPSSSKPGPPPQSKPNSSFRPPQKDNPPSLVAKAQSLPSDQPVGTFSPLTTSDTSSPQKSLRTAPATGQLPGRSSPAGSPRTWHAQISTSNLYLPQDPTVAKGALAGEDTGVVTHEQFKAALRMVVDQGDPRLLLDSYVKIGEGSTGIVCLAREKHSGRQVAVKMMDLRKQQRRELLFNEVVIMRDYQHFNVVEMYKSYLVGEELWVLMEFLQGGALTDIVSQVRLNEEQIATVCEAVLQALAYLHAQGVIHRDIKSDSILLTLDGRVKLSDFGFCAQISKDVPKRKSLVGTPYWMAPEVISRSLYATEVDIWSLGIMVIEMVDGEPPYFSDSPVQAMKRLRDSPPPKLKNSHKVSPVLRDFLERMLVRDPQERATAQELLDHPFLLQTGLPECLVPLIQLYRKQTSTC

[28] = target: Calcium/calmodulin-dependent protein kinase kinase 2 (Homo sapiens) (UniProt Q96RR4); conditions: Compound concentration 1000.0 nM
[29] = target: 3-phosphoinositide-dependent protein kinase 1 (Homo sapiens) (UniProt O15530); conditions: Compound concentration 1000.0 nM
[30] = target: Cyclin-dependent kinase-like 3 (Homo sapiens) (UniProt Q8IVW4); conditions: Compound concentration 1000.0 nM
[31] = system: Epidermal growth factor receptor (Homo sapiens), P00533 [UNDEFINED MUTATION]; conditions: Compound concentration 1000.0 nM
[32] = target: Sodium-dependent dopamine transporter (Homo sapiens) (UniProt Q01959); conditions: Compound concentration 10.0 uM
[33] = target: Serine/threonine-protein kinase Sgk3 (Homo sapiens) (UniProt Q96BR1); conditions: Compound concentration 1000.0 nM
[34] = target: Mitogen-activated protein kinase 8 (Homo sapiens) (UniProt P45983); conditions: Compound concentration 1000.0 nM
[35] = target: Calcium/calmodulin-dependent protein kinase type 1G (Homo sapiens) (UniProt Q96NX5); conditions: Compound concentration 1000.0 nM
[36] = target: Alpha-1B adrenergic receptor (Homo sapiens) (UniProt P35368); conditions: Compound concentration 10.0 uM
[37] = target: Fibroblast growth factor receptor 1 (Homo sapiens) (UniProt P11362); conditions: Compound concentration 1000.0 nM
[38] = target: Serine/threonine-protein kinase 3 (Homo sapiens) (UniProt Q13188); conditions: Compound concentration 1000.0 nM
[39] = target: 5-hydroxytryptamine receptor 2A (Homo sapiens) (UniProt P28223); conditions: Compound concentration 10.0 uM
[40] = target: Cyclin-dependent kinase 11B (Homo sapiens) (UniProt P21127); conditions: Compound concentration 1000.0 nM
[41] = target: Receptor-type tyrosine-protein kinase FLT3 (Homo sapiens) (UniProt P36888); conditions: Compound concentration 1000.0 nM
[42] = target: Phosphatidylinositol 4-phosphate 3-kinase C2 domain-containing subunit beta (Homo sapiens) (UniProt O00750); conditions: Compound concentration 1000.0 nM
[43] = target: Ephrin type-A receptor 6 (Homo sapiens) (UniProt Q9UF33); conditions: Compound concentration 1000.0 nM
[44] = target: Histamine H4 receptor (Homo sapiens) (UniProt Q9H3N8); conditions: Compound concentration 10.0 uM
[45] = target: Serine/threonine-protein kinase 10 (Homo sapiens) (UniProt O94804); conditions: Compound concentration 1000.0 nM

Chain of Serine/threonine-protein kinase WNK2 (Homo sapiens) (Q9Y3S1 whole entry): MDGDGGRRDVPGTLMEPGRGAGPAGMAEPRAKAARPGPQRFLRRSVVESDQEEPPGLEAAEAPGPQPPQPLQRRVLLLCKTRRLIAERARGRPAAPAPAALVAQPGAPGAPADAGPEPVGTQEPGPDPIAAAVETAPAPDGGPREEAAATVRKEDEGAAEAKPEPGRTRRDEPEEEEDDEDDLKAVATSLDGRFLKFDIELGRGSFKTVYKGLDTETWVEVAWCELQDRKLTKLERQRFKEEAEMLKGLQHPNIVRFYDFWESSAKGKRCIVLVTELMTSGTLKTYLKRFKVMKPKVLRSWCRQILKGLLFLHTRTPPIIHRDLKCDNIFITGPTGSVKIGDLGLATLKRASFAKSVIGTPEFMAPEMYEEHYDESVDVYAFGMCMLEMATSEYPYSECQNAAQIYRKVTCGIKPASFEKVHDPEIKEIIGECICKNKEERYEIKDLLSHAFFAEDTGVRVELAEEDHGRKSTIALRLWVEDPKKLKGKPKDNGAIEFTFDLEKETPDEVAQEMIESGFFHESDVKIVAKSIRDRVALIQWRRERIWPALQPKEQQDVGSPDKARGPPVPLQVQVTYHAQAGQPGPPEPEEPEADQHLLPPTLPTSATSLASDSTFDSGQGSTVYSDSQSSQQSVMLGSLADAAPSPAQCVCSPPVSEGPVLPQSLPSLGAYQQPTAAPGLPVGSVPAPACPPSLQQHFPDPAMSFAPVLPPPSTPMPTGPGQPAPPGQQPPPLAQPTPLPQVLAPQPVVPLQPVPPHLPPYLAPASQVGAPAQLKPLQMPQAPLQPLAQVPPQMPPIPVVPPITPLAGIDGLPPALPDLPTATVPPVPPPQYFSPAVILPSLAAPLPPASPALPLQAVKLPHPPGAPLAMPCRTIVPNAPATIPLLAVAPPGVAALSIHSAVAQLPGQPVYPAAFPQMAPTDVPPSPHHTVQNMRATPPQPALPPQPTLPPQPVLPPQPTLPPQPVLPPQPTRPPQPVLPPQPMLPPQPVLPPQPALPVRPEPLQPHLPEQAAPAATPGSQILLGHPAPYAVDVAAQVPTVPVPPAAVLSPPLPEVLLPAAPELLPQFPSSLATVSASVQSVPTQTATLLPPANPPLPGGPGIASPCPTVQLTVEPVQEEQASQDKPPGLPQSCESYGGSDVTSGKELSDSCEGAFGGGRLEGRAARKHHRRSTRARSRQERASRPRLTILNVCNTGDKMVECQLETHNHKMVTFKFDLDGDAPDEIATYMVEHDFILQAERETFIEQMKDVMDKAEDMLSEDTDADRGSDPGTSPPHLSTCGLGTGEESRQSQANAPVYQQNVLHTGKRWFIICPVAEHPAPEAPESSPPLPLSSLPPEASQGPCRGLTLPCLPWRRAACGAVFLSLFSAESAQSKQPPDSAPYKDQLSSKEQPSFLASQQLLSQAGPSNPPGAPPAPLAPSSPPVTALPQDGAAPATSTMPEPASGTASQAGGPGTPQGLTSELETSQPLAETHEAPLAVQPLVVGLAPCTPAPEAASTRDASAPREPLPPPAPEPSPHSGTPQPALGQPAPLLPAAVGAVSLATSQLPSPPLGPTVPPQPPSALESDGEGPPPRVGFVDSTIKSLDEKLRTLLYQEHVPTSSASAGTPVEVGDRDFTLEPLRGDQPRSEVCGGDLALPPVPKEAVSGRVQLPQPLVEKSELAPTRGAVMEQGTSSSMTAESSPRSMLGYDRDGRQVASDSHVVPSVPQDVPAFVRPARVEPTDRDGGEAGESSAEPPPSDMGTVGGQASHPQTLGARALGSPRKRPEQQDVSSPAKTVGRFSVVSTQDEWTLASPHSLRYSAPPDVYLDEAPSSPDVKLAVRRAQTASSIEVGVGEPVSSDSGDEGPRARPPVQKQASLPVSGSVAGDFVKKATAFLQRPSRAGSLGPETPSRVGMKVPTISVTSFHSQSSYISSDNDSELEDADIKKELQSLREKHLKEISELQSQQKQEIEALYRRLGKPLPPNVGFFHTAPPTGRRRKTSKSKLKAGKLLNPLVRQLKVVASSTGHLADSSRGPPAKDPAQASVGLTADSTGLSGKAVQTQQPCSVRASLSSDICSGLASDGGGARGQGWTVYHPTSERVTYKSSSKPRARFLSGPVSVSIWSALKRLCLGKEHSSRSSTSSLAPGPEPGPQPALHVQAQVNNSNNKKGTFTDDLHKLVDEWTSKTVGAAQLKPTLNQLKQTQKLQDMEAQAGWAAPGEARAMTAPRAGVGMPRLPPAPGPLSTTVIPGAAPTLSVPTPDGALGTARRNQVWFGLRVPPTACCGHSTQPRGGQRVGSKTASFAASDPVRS

CC(=O)C1=C(C)N(c2cccc(C(F)(F)F)c2)C(=O)N[C@@H]1c1ccc(C#N)nc1 [BAY-678]
inactive: residual activity [1] 94% | residual activity [2] 86.5% | residual activity [3] 97.4% | residual activity [4] 100% | residual activity [5] 100% | residual activity [6] 94.9% | inhibition [7] 4.22% | inhibition [8] -6.02% | residual activity [9] 100% | residual activity [10] 83.8% | residual activity [11] 89.2% | residual activity [12] 100% | residual activity [13] 100% | residual activity [14] 100% | residual activity [15] 95.6% | residual activity [16] 100% | residual activity [17] 94.8% | residual activity [18] 100% | residual activity [19] 94.1% | residual activity [20] 100% | residual activity [21] 100% | inhibition [22] -6.78% | residual activity [23] 100% | residual activity [24] 100% | residual activity [25] 80.8% | residual activity [26] 100% | residual activity [27] 92.7% | residual activity [28] 100% | residual activity [29] 93.4% | residual activity [30] 98.5% | residual activity [31] 80% | inhibition [32] -0.342% | residual activity [33] 100% | residual activity [34] 100% | residual activity [35] 100% | inhibition [36] -1.17% | residual activity [37] 100% | residual activity [38] 93.1% | inhibition [39] -0.427% | residual activity [40] 100% | residual activity [41] 100% | residual activity [42] 100% | residual activity [43] 94.5% | inhibition [44] 25.9% | residual activity [45] 84.5%
